Measurements from patent US20060014737A1, “Methods of treatment of amyloidosis using bi-aryl aspartyl protease inhibitors” (priority 2004, published 2006).
Several values for one entry are separate records, joined by “and”; a condition that tells them apart may be missing. Equal values may be shown once. Each block holds one compound with its values, some of them ahead of it.

Assays:
[1] = system: catE versus beta-secretase (BACE); experiment: Selectivity for BACE versus catE (ratio of IC50 values); format: biochemical; conditions: each value an average of four runs; multiple values = more than one experiment
Experimental: (§1) Investigation of potential beta-secretase inhibitors produced compounds with increased selectivity for beta-secretase over other aspartyl proteases such as cathepsin D (catD), cathepsin E (catE), HIV protease, and renin. Selectivity was calculated as a ratio of inhibition (IC50) values in which the inhibition of beta-secretase was compared to the inhibition of other aspartyl proteases. […] Alternatively, a compound is selective when its binding affinity is greater for its desired target (e.g., beta-secretase) versus a secondary target (e.g., catD). Accordingly, methods of treatment include administering selective compounds of formula (I) having a lower IC50 value for inhibiting beta-secretase, or greater binding affinity for beta-secretase, than for other aspartyl proteases such as catD, catE, HIV protease, or renin. A selective compound is also capable of producing a higher ratio of desired effects to adverse effects, resulting in a safer method of treatment.
The compounds of formula (I) can be selective for beta-secretase versus catE. […] Selectivity is reported as the ratio of IC50(catE):IC50(BACE).
(§2) In the following examples, each value is an average of four experimental runs and multiple values for one compound indicate that more than one experiment was conducted.

A-beta = experiment: Efficacy of compounds to inhibit A-beta concentration; format: in vivo, rat; conditions: % inhibition of A-beta vs vehicle control
Experimental: Efficacious compounds of the present invention are those able to decrease the amount of A-beta produced compared to a control, where beta-secretase mediated cleavage is observed and measured in the absence of the compounds. Detection of efficacy can be by analysis of A-beta levels, for example, by immunoassay, fluorometric or chromogenic assay, HPLC, or other means of detection. The efficacy of the compounds of formula (I) was determined as a percentage inhibition corresponding to A-beta concentrations for tissue treated and untreated with a compound of formula (I).
The invention encompasses compounds of formula (I) that are efficacious. Efficacy is calculated as a percentage of concentrations as follows: Efficacy=(1−(total A-beta in dose group/total A-beta in vehicle control))*100% wherein the “total A-beta in dose group” equals the concentration of A-beta in the tissue, (e.g., rat brain) treated with the compound, and the “total A-beta in vehicle control” equals the concentration of A-beta in the tissue, yielding a % inhibition of A-beta production. Statistical significance is determined by p-value <0.05 using the Mann Whitney t-test. See, for example, Dovey et al., J. Neurochemistry, 2001, 76:173-181.

[2] = system: catD versus beta-secretase (BACE); experiment: Selectivity for BACE versus catD (ratio of IC50 values); format: biochemical; conditions: each value an average of four runs; multiple values = more than one experiment
Experimental: as §1
The compounds of formula (I) can be selective for beta-secretase versus catD. […] Selectivity is reported as the ratio of IC50(catD):IC50(BACE).
as §2

Selectivity IC50(catE)/IC50(BACE) [1]: 1.2
Compound: CC(=O)NC(Cc1cc(F)cc(F)c1)C(O)CNCc1cc(CC(C)(C)C)ccc1-n1cnc(CO)c1 (centres unmarked) [Example 41.9, N-(1-(3,5-difluorophenyl)-3-hydroxy-4-(2-(4-(hydroxymethyl)-1H-imidazol-1-yl)-5-neopentylbenzylamino)butan-2-yl)acetamide]

Selectivity IC50(catE)/IC50(BACE) [1]: 1.4
Compound: CC(=O)NC(Cc1cc(F)cc(F)c1)C(O)CNCc1cc(CC(C)(C)C)ccc1-n1nccn1 (centres unmarked) [Example 41.11, N-(1-(3,5-difluorophenyl)-3-hydroxy-4-(5-neopentyl-2-(2H-1,2,3-triazol-2-yl)benzylamino)butan-2-yl)acetamide]

Selectivity IC50(catD)/IC50(BACE) [2]: >33.1
Compound: CC(=O)NC(Cc1cc(F)cc(F)c1)C(O)CNCc1cc(CC(C)(C)C)ccc1-n1nccn1 (centres unmarked) [Example 41.7, N-(1-(3,5-difluorophenyl)-3-hydroxy-4-(5-neopentyl-2-(2H-1,2,3-triazol-2-yl)benzylamino)butan-2-yl)acetamide]

The next lines start with the compound.

Compound: CC(=O)NC(Cc1cc(F)cc(F)c1)C(O)CNCc1cc(CC(C)(C)C)ccc1-n1ccnc1 (centres unmarked) [Example 41.1, N-{1-(3,5-Difluoro-benzyl)-3-[5-(2,2-dimethyl-propyl)-2-imidazol-1-yl-benzylamino]-2-hydroxy-propyl}-acetamide]
Efficacy (% Inhibition, 100 mg/kg) cortex (A-beta; cortex): 15%
Efficacy (% Inhibition, 100 mg/kg) plasma (A-beta; plasma): 47%

Compound: CC(=O)NC(Cc1cc(F)cc(F)c1)C(O)CNCc1cc(CC(C)(C)C)ccc1-n1cnc(CO)c1 (centres unmarked) [Example 41.3, N-(1-(3,5-difluorophenyl)-3-hydroxy-4-(2-(4-(hydroxymethyl)-1H-imidazol-1-yl)-5-neopentylbenzylamino)butan-2-yl)acetamide]
Selectivity IC50(catD)/IC50(BACE) [2]: 1.6

Compound: CC(=O)NC(Cc1cc(F)cc(F)c1)C(O)CNCc1cc(CC(C)(C)C)ccc1-n1cnc(C)c1 (centres unmarked) [Example 41.4, N-{1-(3,5-Difluoro-benzyl)-3-[5-(2,2-dimethyl-propyl)-2-(4-methyl-imidazol-1-yl)-benzylamino]-2-hydroxy-propyl}-acetamide]
Selectivity IC50(catD)/IC50(BACE) [2]: 1.7

Compound: CC(=O)NC(Cc1cc(F)cc(F)c1)C(O)CNCc1cc(CC(C)(C)C)ccc1-n1cnc2ccccc21 (centres unmarked) [Example 41.5, N-[3-[2-Benzoimidazol-1-yl-5-(2,2-dimethyl-propyl)-benzylamino]-1-(3,5-difluoro-benzyl)-2-hydroxy-propyl]-acetamide]
Selectivity IC50(catD)/IC50(BACE) [2]: 3.6 and 3.0
